Measured values: publication doi:10.1101/2024.05.29.596450v1 (biorxiv, 2024)

System: Staphylococcus aureus MRSA (ATCC BAA-44)
Experiment: microbe, parasite or virus in culture
Parameters: species or system Staphylococcus aureus ATCC BAA-44
Details: ATCCBAA44|MRSA, 18 h, read-out: %viability

## CC1(C)S[C@@H]2[C@H](NC(=O)[C@H](N)c3ccc(O)cc3)C(=O)N2[C@H]1C(=O)O [Amoxicillin]
  viability at 50 µM: 85%
